Measurements as given in US9487462B2, “Inhibitors of matrix metalloproteinases” (PharmaHungary 2000 Kft., priority 2010, dated 2016).
Entries after “also recorded” stand apart in the source; their conditions may differ.

Key:
MMP9 = MMP9 (Homo sapiens, UniProt P14780); test: MMP activity assay (fluorogenic substrate), MMP9 catalytic domain; type: biochemical; conditions: Table 2
MMP13 = MMP13 (Homo sapiens (Human), UniProt P45452); test: MMP activity assay (fluorogenic substrate), MMP13 catalytic domain; type: biochemical; conditions: Table 2; read-out: MMP13 IC50
[1] = Cytotoxicity, alamarBlue viability, MRC-5; type: cell-based; conditions: human, MRC-5 fibroblast cells, 48 hours incubation, read-out: MRC-5 LC50
Procedure, shortened: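 Cells exposed to compound dilutions for 48 hours, then alamarBlue added for 4 hours; fluorescence read at ex 540/em 590 nm. IC50 from six concentrations run in duplicate.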

MMP-9 = MMP-9 (Rattus norvegicus (Rat), UniProt P50282); test: In vitro zymography assay (gelatin), MMP-9; type: biochemical; conditions: % ± SD
MMP-9, sequence (P50282 108-708): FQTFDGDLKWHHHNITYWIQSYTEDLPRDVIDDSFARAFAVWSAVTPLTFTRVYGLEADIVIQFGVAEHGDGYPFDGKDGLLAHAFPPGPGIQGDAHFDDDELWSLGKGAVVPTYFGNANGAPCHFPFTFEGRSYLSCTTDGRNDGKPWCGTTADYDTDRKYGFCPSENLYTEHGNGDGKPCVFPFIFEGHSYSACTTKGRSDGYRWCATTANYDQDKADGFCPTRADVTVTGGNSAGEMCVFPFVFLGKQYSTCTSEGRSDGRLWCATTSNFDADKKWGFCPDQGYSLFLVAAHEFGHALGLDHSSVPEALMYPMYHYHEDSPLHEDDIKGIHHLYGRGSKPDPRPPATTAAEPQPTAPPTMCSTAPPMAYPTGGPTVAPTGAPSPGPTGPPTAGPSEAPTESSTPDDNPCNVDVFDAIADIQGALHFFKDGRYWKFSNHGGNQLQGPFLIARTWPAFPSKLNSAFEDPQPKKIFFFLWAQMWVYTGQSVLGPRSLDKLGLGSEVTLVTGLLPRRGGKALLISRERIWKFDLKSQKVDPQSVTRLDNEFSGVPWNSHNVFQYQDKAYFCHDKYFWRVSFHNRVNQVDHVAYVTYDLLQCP
Method: MMP-2 and MMP-9 enzymes were isolated from rat hearts and from rat spleen while human, recombinant MMP-1 and MMP-13 enzymes used were commercial. MMP-2, -9, -13 enzymes were separated by electrophoresis during non-reducing conditions on 8% SDS-polyacrylamide gels copolymerized with 2 mg/ml gelatin from porcine skin (Sigma Aldrich) while MMP-1 was separated under the same conditions on 8% SDS-polyacrylamide gels copolymerized with 2 mg/ml casein (Sigma Aldrich). […] In case of MMP-13 p-aminophenylmercuric acetate (APMA) was used for enzyme activation at 37° C. for 30 min. After electrophoresis, gels were washed in 2.5% Triton-X 100 with agitation and then incubated for 20 hrs at 37° C. in enzyme incubation buffer (50 mM Tris-HCl, pH 7.5, containing 5 mM CaCl2, 200 mM NaCl) with or without MMP inhibitor. Zymographic gels were stained in Coomassie Brilliant Blue R-250 and de-stained. Gelatin and casein zymograms were scanned. MMP activity is detected as a white zone on a blue background and the clear bands in the gel can be quantified by densitometry. The obtained density values were measured and % inhibition values calculated (Kupai et al., 2010). The table below summarizes the prescreen inhibition values determined for different MMP inhibitors on MMP1, -2, -9, -13.

isolated rat hearts = test: Myocardial ischemia/reperfusion injury in isolated rat hearts (Langendorff), infarct size; type: ex vivo
Method: Male Wistar rats were anesthetized with diethyl ether, heparin (500 U/kg i.v.) was administered and hearts were isolated. The hearts were assigned to three groups: (i) DMSO control and (ii) Compound 1 (1 μM) and (iii) Compound 1 (10 μM) treated. Stock solution of inhibitors was prepared in DMSO. The final DMSO concentration in all assays was 0.1%. Hearts were perfused in Langendorff mode with constant pressure (100 H2O cm) for 20 min at 37° C. then exposed to global ischemia for 30 min followed by 120 min of reperfusion. The DMSO and inhibitors were dissolved in Krebs-Henseleit buffer and administered only before onset of ischemia for 20 min (pretreatment) and during the first 30 min of reperfusion (FIG. 6). At the end of reperfusion, infarct size (IS) was defined by triphenyltetrazolium chloride staining (Csonka et al., 2010).
In separate experiments hearts were perfused to test cardioprotective effect of ALBH-know compound at 5 μM final concentration. The same protocol was used as mentioned above.

IC50 (MMP9): 37 µM
IC50 (MMP13): 2.5 µM
% inhibition MMP-9 (92 kDa) (MMP-9; 1 μM): No inhibition
% inhibition MMP-9 (92 kDa) (MMP-9; 100 μM): No inhibition
Structure (SMILES): O=C(O)c1csc(CN(Cc2ccc(F)cc2)Cc2ccc(OCc3cccnc3)cc2)n1 [Compound 1, 2-({[(4-Fluorophenyl)methyl]({[4-(pyridin-3-ylmethoxy)phenyl]methyl})amino}methyl)-1,3-thiazole-4-carboxylic acid]
CC50 at 48 h [1]: 25 µM
myocardial IS (infarct size) (isolated rat hearts; 1 μM and 10 μM, administered before ischemia and during reperfusion, result in words): reduced myocardial IS; also recorded: decreased infarct size significantly
Infarct size as compared with DMSO control (isolated rat hearts; 10 μM, isolated rat hearts, 30 min global ischemia, 120 min reperfusion, p<0.05): significantly decreased infarct size
